From patent US20050042209A1, “MUC1 extracellular domain and cancer treatment compositions and methods derived therefrom” (priority 2000, published 2005)

Key:
HCT116 cells [1] = assay: Apoptosis (sub-G1 DNA, TUNEL) in HCT116 transfectants; assay type: cell-based, human; conditions: FIG. 15
Procedure: Methods. Apoptotic cells were quantified by analysis of sub-G1 DNA and TUNEL staining. To assess sub-G1 DNA content, cells were harvested, washed with PBS, fixed with 80% ethanol, and incubated in PBS containing 20 ng/ml RNase (Roche) for 60 min at 37° C. Cells were then stained with […] propidium iodide (Sigma) for 30 min at room temperature in the dark. DNA content was analyzed by flow cytometry (EPICS XL-MCL, Coulter Corp.). Apoptotic cells with DNA fragmentation were detected by staining with the In Situ cell death detection kit (TUNEL; Roche Applied Science) and visualized by confocal microscopy (ZEISS LSM510). After staining, cells were analyzed by flow cytometry. Other experimental procedures and methods were as described in Example 15.
Results. To determine if MUC1 affects the induction of apoptosis by CDDP, cells were analyzed for sub-G1 DNA content. […] Stimulation of cell surface death receptors with TNF-α or the TNF-related apoptosis inducing factor TRAIL is associated with activation of the extrinsic apoptotic pathway. To determine if MUC1 affects death receptor-induced apoptosis, HCT116 cells were treated with TNF-α.

MUC1 = MUC1 induction by oxidative and genotoxic stress (immunoblot); conditions: available evidence; cells not given
Procedure: To determine whether MUC1 is induced in response to oxidative stress, MCF-7 cells were treated with hydrogen peroxide. Cell lysates were analyzed by immunoblotting with anti-DF3/MUC1 antibody. Lysates were prepared by suspending MCF-7 cells in lysis buffer (50 mM Tris, pH 7.6, 150 mM NaCl, 1 mM PMSF, 3 mM NaF, 1 mM sodium vandate, 1 mM DTT with protease inhibitors and either 1% NP-40 or 1% Brij-96) for 30 min. on ice. Lysates were cleared by centifugation and equal amounts of proteins were resolved by SDS-PAGE. Proteins were then transferred to nitrocellulose filters, blocked by incubation in 5% non-fat dry milk in PBS with 0.05% Tween-20 and probed with anti-MUC1 antibody (Pandey et al., 1995). Anti-actin was used as a control.
Similar studies were performed with genotoxic agents.

[2] = tested on: ZR-75-1 breast carcinoma cells; assay: Mitochondrial transmembrane potential in ZR-75-1 cells; assay type: cell-based, human
Procedure: Analysis of mitochondrial transmembrane potential: Cells were incubated with 0.5 nM 3,3-dihexyloxocarbocyanine iodide (DiOC6[3]; Molecular Probes) for 30 min and analyzed by flow cytometry as described (Shapiro, 2000).
(§1) As a control, stable transfection of ZR-75-1 cells with the empty reterovirus had no effect on MUC1 expression. […] By contrast, CDDP treatment of ZR-75-1/MUC1siRNA cells was associated with a clear loss of ΔΨm. In concert with these findings, cytochrome C release, as measured by immunoblot, was attenuated in CDDP-treated ZR-75-1/vector cells, as compared to ZR-75-1/MUC1siRNA cells. […] Treatment of ZR-75-1/vector cells with CDDP was associated with the induction of approximately 25% apoptosis.

[3] = tested on: ZR-75-1 breast carcinoma cells; assay: Apoptosis assay (sub-G1 DNA) in ZR-75-1 cells; assay type: cell-based, human
Procedure: Apoptosis assay: Apoptotic cells were quantified by analysis of sub-G1 DNA. Cells were harvested, washed with PBS, fixed with 80% ethanol, and incubated in PBS containing 20 ng/ml RNase (Roche) for 60 min at 37° C. Cells were stained with 40 μg/ml propidium iodide (Sigma) for 30 min at room temperature in the dark. DNA content was analyzed by flow cytometry (EPICS XL-MCL, Coulter Corp.).
as §1

ZR-75-1 tumors = assay: ZR-75-1 tumor growth in nude mice; assay type: in vivo; conditions: 7 mg/Kg CDDP intraperitoneal, FIG. 12
Procedure: FIG. 12: Summary of data showing that MUC1 confers resistance to CDDP in vivo. ZR-75-1/vector cells (∘, ●) or ZR-75-1/MUC1siRNA (¤, ▪) cells (1×10^7) were injected into nude mice that had been pretreated with β-estradiol. The mice were treated as indicated (arrows) with intraperitoneal injections of PBS (¤, ∘) or 7 mg/Kg CDDP (●, ▪). The results are expressed as the tumor volume (mean±S.D>of 4-8 mice per group.
To determine if knocking-down MUC1 affects chemosensitivity in vivo, mice were injected with ZR-75-1 cells stably expressing the empty viral vector or MUCsiRNA.

[4] = tested on: intrinsic apoptotic pathway; assay: Release of mitochondrial factors and caspase-3 activation in HCT116 transfectants; assay type: cell-based, human
Procedure: Methods. Experimental procedures and methods were as described in Example 15.
(§2) Results. Treatment of cells with DNA-damaging agents is associated with release of mitochondrial cytochrome c and activation of the intrinsic apoptotic pathway. To determine if mitochondrial localization of the MUC1 C-ter affects cytochrome c release, the HCT116 transfectants were treated with cisplatin (CDDP). […] Release of cytochrome c in the response to genotoxic stress is associated with activation of caspase-3 and cleavage of PKCδ (Emoto et al., 1995). To assess the effects of MUC1 on caspase-3 activation, CDDP-treated cells were analyzed for cleavage of pro-caspase-3. […] Smac/DIABLO is a mitochondrial protein that induces caspase-dependent cell death by interacting with inhibitor of apoptosis proteins (IAPs) and blocking their caspase inhibitory activity (Du et al., 2000; Verhagen et al., 2000). To determine if MUC1 attenuates release of Smac/DIABLO, HCT116/vector, HCT116/MUC1 and HCT116/MUC(Y46F) cells were treated with CDDP for 24, 48 and 72 h, and cytosolic lysates were subjected to immunoblot analysis. […] CDDP treatment of HCT116/vector and HCT116/MUC1(Y46F) cells for 72 h was associated with>90% cell death and decreases in the β-actin signals used as a control for loading. By contrast, treatment of HCT116/MUC1 cells with CDDP for 72 h was associated with cessation of cell growth and<30% cell death. These findings indicate that mitochondrial localization of MUC1 C-ter attenuates DNA damage-induced activation of the intrinsic apoptotic pathway.

HCT116 cells [5] = assay: Cell death of HCT116 transfectants; assay type: cell-based, human; conditions: 72 h
Procedure: as §2, with “These findings indicate that mitochondrial localization of MUC1 C-ter attenuates DNA damage-induced activation of the intrinsic apoptotic pathway.” left out

cytochrome c release = assay: Cytochrome c release (immunoblot) in ZR-75-1 cells; assay type: cell-based, human; conditions: ZR-75-1/vector cells compared to ZR-75-1/MUC1siRNA cells
Procedure: Immunoblot analysis: Lysates were prepared from cells as described (Li et al., 2001]. Equal amounts of protein were separated by SDS-PAGE and transferred with anti-cytochrome c (BD PharMingen, San Diego, Calif.). The immunocomplexes were detected with horseradish peroxidase-conjugated secondary antibodies and enhanced chemiluminescence (ECL, Amersham Biosciences, Piscataway, N.J.). Intensity of the signals was determined by densiometric scanning.
as §1

MUC1 C-ter [6] = assay: Expression of MUC1 C-ter with CHX; assay type: cell-based, human
MUC1 C-ter [7] = assay: Mitochondrial localization of MUC1 C-ter (immunoblot of mitochondrial fractions); assay type: cell-based, human; conditions: HCT116/MUC1 or HCT116/MUC1(Y46F) cells; EGF 10 ng/ml
Procedure: Cell culture. Human HCT116 colon carcinoma cells (ATCC, Manassas, Va.) were cultured in Dulbecco's modified Eagle's medium/F12 with 10% heat-inactivated fetal bovine serum, 100 units/ml penicillin, […] streptomycin and 2 mM L-glutamine.
Cell transfections. HCT116 cells were transfected with pIRES-puro2, pIRESpuro2-MUC1 or pIRES-puro2-MUC1(Y46F) as described (Li et al., 2001a). SW480 cells were transfected with pIRES-puro2 or pIRES-puro2-MUC1. Stable transfectants were selected in the presence of 0.4 mg/ml puromycin (Calbiochem-Novabiochem, San Diego, Calif.). Two independent transfections were performed for each vector.
Immunoblot analysis. Lysates were prepared from subconfluent cells as described (Li et al., 2001a). Equal amounts of protein were separated by SDS-PAGE and transferred to nitrocellulose membranes. […] The immunocomplexes were detected with horseradish peroxidase-conjugated secondary antibodies and enhanced chemiluminescence (ECL, Amersham Biosciences, Piscataway, N.J.). Intensity of the signals was determined by densitometric scanning. […]
To extend these findings, MUC1 C-ter was expressed with a GFP tag at the N-terminus and assessed mitochondrial localization. […]

Molecule: [NH2][Pt]([NH2])([Cl])[Cl] [CDDP, cisplatin]
- attenuation of CDDP-induced apoptosis (HCT116 cells [1]; HCT116/MUC1(Y46F) cells): not
- CDDP-induced apoptosis (HCT116 cells [1]; HCT116/MUC1 cells): attenuated
- apoptosis (sub-G1 DNA) (HCT116 cells [1]; HCT116/vector cells, 100 μM CDDP for 24 h): approximately 40%
- MUC1 induction by diverse cytotoxic agents (MUC1): induced
- mitochondrial transmembrane potential (ΔΨm) ([2]; ZR-75-1/MUC1siRNA cells): clear loss
- mitochondrial transmembrane potential (ΔΨm) ([2]; ZR-75-1/vector cells): little if any decrease
- apoptosis ([3]; ZR-75-1/MUC1siRNA cells): over 60%
- apoptosis ([3]; ZR-75-1/vector cells): approximately 25%
- sensitivity of tumors to treatment (ZR-75-1 tumors; ZR-75-1/MUC1siRNA tumors): considerably more sensitive
- tumor growth (ZR-75-1 tumors; ZR-75-1/vector tumors): partial slowing
- release of Smac/DIABLO ([4]; 24, 48 and 72 h, HCT116/MUC1 compared to HCT116/vector and HCT116/MUC1(Y46F) cells): attenuated
- CDDP-induced cytochrome c release ([4]; HCT116/MUC1(Y46F) cells): ineffective in blocking
- release of cytochrome c ([4]; HCT116/MUC1 cells): significantly attenuated
- caspase-3-mediated cleavage of PKCδ ([4]; HCT116/MUC1 compared to HCT116/vector and HCT116/MUC1(Y46F) cells): attenuated
- CDDP-induced activation of caspase-3 ([4]; HCT116/MUC1 compared to HCT116/vector cells): attenuates
- release of apoptosis-inducing factor (AIF) ([4]; HCT116/MUC1 compared to vector or MUC1(Y46F) cells): attenuated release
- cytosolic cytochrome c ([4]; HCT116/vector cells): increased levels
- cell death (HCT116 cells [5]; HCT116/MUC1 cells): < 30%
- cell death (HCT116 cells [5]; HCT116/vector and HCT116/MUC1(Y46F) cells): > 90%
- cytochrome C release (immunoblot) (cytochrome c release): attenuated

Molecule: C[C@@H]1C[C@@H]([C@H](O)CC2CC(=O)NC(=O)C2)C(=O)[C@@H](C)C1 [CHX, cycloheximide]
- expression of MUC1 C-ter (MUC1 C-ter [6]): no apparent effect

Molecule: EGF: EGF (10 ng/ml; Calbiochem-Novabiochem)
- mitochondrial targeting of MUC1 C-ter (MUC1 C-ter [7]): little effect
